Where “and” joins values, the source holds several entries; their conditions need not be identical. Equal values may be shown once.
Experiments:
Type in all cases: cell-based
[1] = system: Klebsiella pneumoniae K66-45; assay: MIC determination, fixed concentration of sBLI (Examples 8-9); settings: Example 9; with PIP and TAZ 16 μg/mL; NDM-1; caMHB, 29.4 μM Zn2+
Method: (§1) Antimicrobial susceptibility testing (AST) by broth microdilution (MIC determination) was performed according to The European Committee on Antimicrobial Susceptibility Testing (EUCAST) guidelines (see Reading guide for broth microdilution Version 5.0, 2024: https://www.eucast.org).
For combinations containing meropenem as the antibiotic, Sensititre™ FINMER meropenem 64-0.03 μg/mL plates (Thermo Fischer Diagnostics custom plates; YFINMER) were used in most of the experiments. For other antibiotics (and for meropenem whenever a higher start concentration than 64 μg/mL was needed) sterile clear round bottom polystyrene (non-treated) 96-well microplates (Corning 3788) were used for making serial two-fold dilutions of the antibiotic in cation-adjusted Mueller Hinton II broth (caMHB; Thermo Scientific, T3462, containing 29.4 μM Zn^2+ or MILLIPORE, 90922-500G, containing 5.6 μM Zn^2+), across the columns of the microtiter plate (128-0.06 μg/mL; columns 1-12).
The checkerboard plates were all modified by adding a serine β-lactamase inhibitor (sBLI) at a fixed concentration of 16 μg/mL. Additionally, the zinc chelator was added at various fixed concentrations. […]

bacterial strain = assay: MIC checkerboard assays, Examples 2 to 30 overall
Method: Thus, in most of the experiments, a Fractional Inhibitory Concentration Index (FICI) could not be calculated, and the conclusion of synergy was made through visual reading of the bacterial growth in the wells in the combination experiment.
as §1
(§2) Sterile clear round bottom polystyrene (non-treated) 96-well microplates (Corning 3788) were used for making serial two-fold dilutions of the antibiotic and the sBLI in cation-adjusted Mueller Hinton II broth (caMHB; Thermo Scientific, T3462, containing 29.4 μM Zn^2+), across the columns of the microtiter plate (256-0.06 μg/mL; columns 1-12). The checkerboard plates were all made by keeping the sBLI at a fixed ratio relative to antibiotic (absolute concentrations of each, in μg/mL) to all wells containing sample in each plate. Additionally, a set of samples was included in each test plate, where the zinc chelator was added, at various fixed concentrations, of 16 μg/mL, 8 μg/mL and/or 4 μg/mL (as specified in each Example). All sample wells contained growth medium (caMHB), and inoculated bacteria at a final inoculum between 3-7×10^5 CFU/mL. […]

[2] = system: Klebsiella pneumoniae ST147; assay: MIC determination, fixed ratio of sBLI to antibiotic (Examples 5-7); settings: Example 7; with MEM and AVI (fixed ratio); NDM-1 and KPC-2; caMHB, 29.4 μM Zn2+
Method: as §1, §2

CN(C[C@H](O)[C@@H](O)[C@H](O)[C@H](O)CO)C(=O)c1ccc(CN(Cc2ccccn2)Cc2ccccn2)nc1 [zinc chelator]
Synergy with the zinc chelator observed at concentration [1]: 16 µg/mL | intrinsic antibiotic effect (bacterial strain): neither the zinc chelator nor the sBLI have intrinsic antibiotic effect | Synergy with the zinc chelator observed at concentration [2]: 16 µg/mL and 8 µg/mL
